Experimental data: patent US20030055018A1, “Modulation of phosphoinositide 3-kinase activity” (priority 2001, published 2003)

Columns and labels:
HaCaT cells = assay: Suspension survival assay of HaCaT keratinocytes; assay type: cell-based, human
Experimental: FIG. 8 is presented to complementary roles of tyrosine kinase and small GTPase signals induced by integrin or growth factor stimulation, in PI3K/Akt activation and cell survival. […] Akt kinase activity in cell lysates harvested 30 minutes later was measured by in vitro phosphorylation of H2B. […] HaCaT cells or HaCaT cells stably-expressing activated H-Ras G12V were cultured on 0.9% agarose in MCDB base medium. EGF was used at 2 nM concentration in the indicated culltures. Cell aliquots were removed after 6 hours in suspension for immunoblot analysis. Cell viability was examined after 10 days in suspension as described (Jost et al., 2001, Mol Biol Cell 12, 1519-27). (C) A model of PI3K activation by tyrosine kinase- and small GTPase signals. According to this model, p85 binds, via its cSH2 motif, tyrosine phosphorylated proteins and undergoes phosphorylation at Y688. Phosphorylation at this site, functionally inactivates the p85 inhibitory domain. Neutralization of the inhibitory domain renders p85 responsive to PI3K activation signals that are transduced by small GTPases.
These experiments were carried out in serum-free define media. The constitutively-active H-Ras G12V activates the PI3K/Akt pathway and rescues cells from anoikis only in suspension cultures supplemented with epidermal growth factor (EGF) (FIG. 8B). […] Thus, PI3K/Akt activation and inhibition of anoikis depend on the combination of tyrosine kinase and small GTPase signals.
Suspension survival assay were performed as previously described (Jost et al., 2001, Mol Biol Cell 12, 1519-27). […] Cell viability was measured after 10 days in suspension. Cell viability was analysed by crystal violet staining of cells reseeded after 10 days of suspension culture onto tissue culture-treated plastic and allowed to grow for 3 days. […]

PI3K/Akt pathway = assay: Akt activation in transfected NIH3T3 cells (H2B phosphorylation by immunoprecipitated FLAG-Akt, or Akt Thr308 immunoblot); assay type: cell-based, mouse
Source text: Specifically, to show whether membrane-associated full-length p85 is functionally similar to the carboxy-terminally truncated protein the p85 fused at its amino-terminus to a peptide encoding the Src myristoylation signal (Myrp85-WT) (FIG. 2A), was transiently expressed in NIH3T3 cells in combination with FLAG-Akt or FLAG-Akt plus H-Ras. Myrp85Δonc was used as a control. The cells were lysed forty-eight hours later, following overnight serum starvation. Akt activation in this, and subsequent experiments, was determined by measuring the phosphorylation of histone 2B (H2B) by immunoprecipitated Akt.
Akt/PKB activation by phosphorylation strictly depends on the binding of the Akt PH domain to PtdIns-3,4,5-P3 and therefore, indirectly measures intracellular PtdIns-3,4,5-P3 levels (Chan et al., 1999, Ann Rev Biochem 68, 965-1015). Akt/PKB kinase activation was determined either by measuring the phosphorylation of Akt at Thr308 using an antibody from Cell Signaling Technology or by measuring the kinase activity of immunoprecipitated FLAG-tagged wild type Akt. The activity of immunoprecepitated Akt was measured using Histone 2B as the substrate, and following previously described protocols (Bellacosa et al., 1998, Oncogene 17, 313-25; Franke et al., 1995, Cell 81, 727-736) with slight modifications. Briefly, cells were lysed on ice using a NP40 lysis buffer (25 mM Tris-HCl pH 7.6, 137 mM NaCl, 10% glycerol, 1% NP40, 10 mM NaF) freshly supplemented with 1 mM Sodium pyrophosphate, 5 μg/ml leupeptin, 5 μg/ml aprotinin, 1 mM EDTA, 10 mM PMSF, 1 mM NaVO4 and 1 mM DTT. […] The phosphorylated Histone H2B was visualized by autoradiography and quantitated by Phosphorlmager (Molecular Dynamics). Akt expression was determined by probing the membranes with a polyclonal rabbit anti-Akt antibody.
Specific Akt kinase activity was determined by Phosphorimager-quantitation of the ^32P-phosphorylated Akt substrate Histone 2B, and by quantification of Akt in anti-Akt immunoprecipitates using a laser densitometry scanner (Molecular Dynamics). […]

PI3K = assay: PtdIns-3,4,5-P3 measured by thin layer chromatography in lipid extracts of 32P-labeled transfected NIH3T3 cells; assay type: cell-based, mouse; conditions: construct co-transfected with constitutively-active H-Ras G12V; serum-free; 32P-orthophosphate 1.5 h
Experimental: In FIG. 1, it is shown that p85 inhibits while p85Δonc enhances PI3K activation by small GTPases. (A) Schematic diagrams and expression of transiently transfected HA-tagged p85-WT and p85Δonc constructs. (B) Upper panel. p85-WT inhibits while p85Δonc enhances HRas-induced PtdIns-3, 4, 5-P3 production. The indicated constructs were transiently transfected into NIH3T3 cells. Sixteen hours after transfection, the cells were cultured in serum-free media. Five hours later, they were labeled with ^32P-orthophosphate for 1.5 hours. Total phospholipids were analyzed by thin layer chromatography. (B) Lower panel. p85-WT inhibits while p85Δonc enhances H-Ras induced Akt phosphorylation. Immunoblots of cell extracts from duplicate transfections were probed with an antibody that recognizes Akt phosphorylated at Thr308 or with antibodies that recognize the proteins expressed from the transfected constructs. […] NIH3T3 cells were transiently transfected with the indicated constructs. ^32P-labeled PtdIns-3, 4, 5-P3 was measured as described in B. Akt phosphorylation at Thr308 and expression of transfected constructs were determined by probing immunoblots with the corresponding antibodies. […]
PtdIns-3, 4, 5-P3 was measured in lipid extracts of ^32P-labeled NIH3T3 cells by thin layer chromatography (Maehama et al., 1998, J Biol Chem 273, 13375-8). […]

Substance	Long-term cell survival (10 days) in suspension, cells expressing activated H-Ras G12V (HaCaT cells; EGF 2 nM, serum-free defined medium)	Rescue from anoikis, HaCaT cells without H-Ras G12V (HaCaT cells; EGF alone, 2 nM)	PI3K/Akt activation, HaCaT cells without H-Ras G12V (HaCaT cells; EGF alone, 2 nM, 6 hours in suspension)	PI3K activation by Ras signals in the presence of NM-Src (PI3K/Akt pathway; H-Ras-G12V plus NM-Src, PtdIns-3,4,5-P3 and Akt Thr308)	H-Ras induced Akt phosphorylation at Thr308 (PI3K/Akt pathway; co-transfected with H-Ras G12V, immunoblot)	PI3K/Akt activation by H-Ras (Akt kinase activity, H2B phosphorylation) (PI3K/Akt pathway; co-transfected with constitutively-active H-Ras and FLAG-Akt, overnight serum starvation)	H-Ras-induced PtdIns-3, 4, 5-P3 production (PI3K)
epidermal growth factor (NSDSECPLSHDGYCLHDGVCMYIEALDKYACNCVVGYIGERCQYRDLKWWELR; Epidermal growth factor; UniProt P01133 971-1023, looked up) [EGF]	cooperate to support long-term cell survival	failed to rescue	inefficient				
p85-WT: HA-tagged construct of wild-type p85, regulatory subunit of PI3K				does not inhibit	inhibits	blocks	inhibits
